How the values were obtained:
X4 strain of HIV-1 = settings: cited from earlier work
SARS-CoV-2 = assay type: cell-based; settings: for IC50: read-out: VeroE6 IC50
EBOV trVLP = assay type: cell-based, Ebola virus; settings: for IC50: read-out: EBOV trVLP IC50
Ce-FF = assay type: cell-based; settings: read-out: Ce-FF IC50
SARS-CoV-2 RNA synthesis = assay type: cell-based
EBOV trVLP RNA synthesis = assay type: cell-based, Ebola virus
[1] = human
EBOV infection = settings: in vivo; cited from earlier work
Covid-19 = settings: human, in vivo; cited from earlier work

Question: For `CCCCCCCCCCCCCC(=O)OC[C@@H]1O[C@H](n2cc(F)c(N)nc2=O)CS1` [5′-O-tetradecanoyl derivative of FTC], which “fold more activity than FTC” value (X4 strain of HIV-1) is on record?
Answer: The value was 19 fold.

Question: For `[N-]=[N+]=NCCCCCCCCCCCC(=O)O` [12-Azidododecanoic acid, reference compound], which “anti-SARS-CoV-2 activity in Vero E6 cells” value (SARS-CoV-2) is on record?
Answer: The value was “did not exhibit any anti-SARS-CoV-2 activity”.

Question: What about the “activity against EBOV trVLP” value (EBOV trVLP) of the same molecule?
Answer: Its value is “no inhibitory activity”.

Question: Which results are given for “(2R,3R,4R,5R)-2-(4-Aminopyrrolo[2,1-f][1,2,4]triazin-7-yl)-2-cyano-5-((((((R)-1-(2-ethylbutoxy)-1-oxopropan-2-yl)amino)(phenoxy)phosphoryl)oxy)methyl)-4-hydroxytetra hydrofuran-3-yl palmitate [Compound 3c]”?
Answer: IC50 (SARS-CoV-2): 4.6 µM; IC50 (EBOV trVLP): 0.5 µM; IC50 (Ce-FF): > 50 µM; CC50 (Vero E6 cells): > 50 µM; CC50 (Huh-7 cells): 27 µM

Question: Which results are given for `CCCCCCCCCCCCCC(=O)O` [Myristic acid, reference compound]?
Answer: anti-SARS-CoV-2 activity in Vero E6 cells (SARS-CoV-2): did not exhibit any anti-SARS-CoV-2 activity; activity against EBOV trVLP (EBOV trVLP): no inhibitory activity

Question: For `CCCCCCCCCCCCCC(=O)O[C@H]1[C@@H](OC(=O)CCCCCCCCCCCCC)[C@](C#N)(c2ccc3c(N)ncnn23)O[C@@H]1CO[P@@](=O)(N[C@H](C)C(=O)OCC(CC)CC)Oc1ccccc1` [Compound 5a, ((2R,3R,4R,5R)-2-(4-Aminopyrrolo[2,1-f][1,2,4]triazin-7-yl)-2-cyano-5-((((((R)-1-(2-ethylbutoxy)-1-oxopropan-2-yl)amino)(phenoxy)phosphoryl)oxy)methyl)tetrahydro-furan-3,4-diyl ditetradecanoate], which “SARS-CoV-2 viral RNA synthesis” value (SARS-CoV-2 RNA synthesis) is on record?
Answer: The value was “significant reduction in viral RNA synthesis was observed for all compounds apart from disubstituted compound 5a”.

Question: For `CCCCCCCCCCOCCC(=O)O[C@H]1[C@@H](O)[C@](C#N)(c2ccc3c(N)ncnn23)O[C@@H]1CO[P@@](=O)(N[C@H](C)C(=O)OCC(CC)CC)Oc1ccccc1` [Compound 4b, (2R,3S,4R,5R)-5-(4-Aminopyrrolo[2,1-f][1,2,4]triazin-7-yl)-5-cyano-2-((((((R)-1-(2-ethylbutoxy)-1-oxopropan-2-yl)amino)(phenoxy)phosphoryl)oxy)methyl)-4-hydroxy-tetrahydrofuran-3-yl-3-(decyloxy)propanoate], which “activity against EBOV trVLP” value (EBOV trVLP) is on record?
Answer: Its value is “comparable activity with RDV”.

Question: What about the “SARS-CoV-2 viral RNA synthesis” value (SARS-CoV-2 RNA synthesis) of the same molecule?
Answer: Its value is “significant reduction in viral RNA synthesis”.

Question: And the “EBOV trVLP viral RNA synthesis” value (EBOV trVLP RNA synthesis)?
Answer: Its value is “significant reduction in viral RNA synthesis”.

Question: For `CCC(CC)COC(=O)[C@H](C)N[P@](=O)(OC[C@H]1O[C@@](C#N)(c2ccc3c(N)ncnn23)[C@H](O)[C@@H]1O)Oc1ccccc1` [RDV, remdesivir, reference compound], which “SARS-CoV-2 viral RNA synthesis” value (SARS-CoV-2 RNA synthesis) is on record?
Answer: Its value is “significant reduction in viral RNA synthesis”.

Question: And the “EBOV trVLP viral RNA synthesis” value (EBOV trVLP RNA synthesis)?
Answer: Its value is “significant reduction in viral RNA synthesis”.

Question: What about the “active triphosphate metabolite observed at 12 h” value [1] of the same molecule?
Answer: Its value is “approximately 22.2%”.

Question: What about the “active triphosphate metabolite observed at 24 h” value [1] of the same molecule?
Answer: The value was 26.3%.

Question: And the “degradation after 1 h” value [1]?
Answer: Its value is “around 13%”.

Question: And the mortality (EBOV infection)?
Answer: Its mortality is 53%.

Question: What about the “median time to recovery” value (Covid-19) of the same molecule?
Answer: Its value is 11 days.

Question: And the mortality rate (Covid-19)?
Answer: The mortality rate was 7.1%.

Question: Which “active triphosphate metabolite observed at 8 h” value [1] does the source give for `CCC(CC)COC(=O)[C@@H](C)N[P@](=O)(OC[C@H]1O[C@@](C#N)(c2ccc3c(N)ncnn23)[C@H](O)[C@@H]1OC(=O)CCCCCCCCCCCN=[N+]=[N-])Oc1ccccc1` [Compound 4c, (2R,3S,4R,5R)-5-(4-Aminopyrrolo[2,1-f][1,2,4]triazin-7-yl)-5-cyano-2-((((((R)-1-(2-ethylbutoxy)-1-oxopropan-2-yl)amino)(phenoxy)phosphoryl)oxy)methyl)-4-hydroxy-tetrahydrofuran-3-yl-12-azidododecanoate] here?
Answer: Its value is 11.3%.

Question: What about the “active triphosphate metabolite observed at 12 h” value [1] of the same molecule?
Answer: Its value is 10.04%.

Question: What about the “active triphosphate metabolite observed at 24 h” value [1] of the same molecule?
Answer: The value was 19.01%.

Question: For “(2R,3R,4R,5R)-2-(4-Aminopyrrolo[2,1-f][1,2,4]triazin-7-yl)-2-cyano-5-((((((R)-1-(2-ethylbutoxy)-1-oxopropan-2-yl)amino)(phenoxy)phosphoryl)oxy)methyl)tetrahydrofuran-3,4-diyl ditetradecanoate [Compound 5b]”, which IC50 (SARS-CoV-2) is on record?
Answer: The IC50 was > 50 µM.

Question: And the “activity against EBOV trVLP” value (EBOV trVLP)?
Answer: Its value is “no inhibitory activity”.

Question: What about the IC50 (EBOV trVLP) of the same molecule?
Answer: The IC50 was > 50 µM.

Question: And the IC50 (Ce-FF)?
Answer: The IC50 was > 50 µM.

Question: What about the “EBOV trVLP viral RNA synthesis” value (EBOV trVLP RNA synthesis) of the same molecule?
Answer: The value was “significant reduction in viral RNA synthesis was observed for all compounds apart from disubstituted compound 5b”.

Question: And the CC50 (Vero E6 cells)?
Answer: Its CC50 is > 50 µM.

Question: What about the CC50 (Huh-7 cells) of the same molecule?
Answer: The CC50 was > 50 µM.

Question: Which “activity against EBOV trVLP” value (EBOV trVLP) does the source give for `CCSCCCCCCCCCCCC(=O)O[C@@H]1[C@H](O)[C@@H](CO[P@@](=O)(N[C@H](C)C(=O)OCC(CC)CC)Oc2ccccc2)O[C@@]1(C#N)c1ccc2c(N)ncnn12` [Compound 3e] here?
Answer: Its value is “comparable with RDV”.

Question: With `CCCCCCCCCCOCCC(=O)O[C@@H]1[C@H](O)[C@@H](CO[P@@](=O)(N[C@H](C)C(=O)OCC(CC)CC)Oc2ccccc2)O[C@@]1(C#N)c1ccc2c(N)ncnn12` [Compound 3b] as the molecule, how does the “activity against EBOV trVLP” value (EBOV trVLP) read?
Answer: Its value is “comparable with RDV”.

Question: Which “SARS-CoV-2 viral RNA synthesis” value (SARS-CoV-2 RNA synthesis) does the source give for `CCCCCCCCCCCCCC(=O)O[C@@H]1[C@H](O)[C@@H](CO[P@@](=O)(N[C@H](C)C(=O)OCC(CC)CC)Oc2ccccc2)O[C@@]1(C#N)c1ccc2c(N)ncnn12` [Compound 3a, (2R,3R,4R,5R)-2-(4-Aminopyrrolo[2,1-f][1,2,4]triazin-7-yl)-2-cyano-5-((((((R)-1-(2-ethylbutoxy)-1-oxopropan-2-yl)amino)(phenoxy)phosphoryl)oxy)methyl)-4-hydroxytetra-hydrofuran-3-yl tetradecanoate] here?
Answer: Its value is “significant reduction in viral RNA synthesis”.

Question: And the “EBOV trVLP viral RNA synthesis” value (EBOV trVLP RNA synthesis)?
Answer: The value was “significant reduction in viral RNA synthesis”.

Question: What does the source list for `CCSCCCCCCCCCCCC(=O)O` [12-thioethyldodecanoic acid, reference compound]?
Answer: anti-SARS-CoV-2 activity in Vero E6 cells (SARS-CoV-2): did not exhibit any anti-SARS-CoV-2 activity; activity against EBOV trVLP (EBOV trVLP): no inhibitory activity

Question: With `CCCCCCCCCCOCCC(=O)O` [4-Oxatetradecanoic acid, reference compound] as the molecule, how does the “anti-SARS-CoV-2 activity in Vero E6 cells” value (SARS-CoV-2) read?
Answer: The value was “did not exhibit any anti-SARS-CoV-2 activity”.

Question: And the “activity against EBOV trVLP” value (EBOV trVLP)?
Answer: Its value is “no inhibitory activity”.

B1: MAB114 (antibody, chains of the INN, looked up, V domains shown)
VH: EVQLVESGGGLIQPGGSLRLSCAASGFALRMYDMHWVRQTIDKRLEWVSAVGPSGDTTYADSVKGRFAVSRENAKNSLSLQMNSLTAGDTAIYYCVRSDRGVAGLFDSWGQGILVTVSS
VL: DIQMTQSPSSLSASVGDRITITCRASQAFDNYVAWYQQRPGKVPKLLISAASALHAGVPSRFSGSGSGTHFTLTISSLQPEDVATYYCQNYNSAPLTFGGGTKVEIK
Question: Which mortality (EBOV infection) does the source give for B1 here?
Answer: The mortality was 35%.

From article PMC8454092 (European Journal of Medicinal Chemistry, 2021)
